Experimental data taken from patent US6514509B2, “Method for production on the spot of a disinfectant peracetic acid system” (Farmec S.n.c. di Tabasso Renato & C., priority 1998, dated 2003).
Like-named read-outs stand apart in the source and are kept apart here.

Assays:
[1] = properties of commercial hydrogen peroxide; cited from earlier work
[2] = properties of commercial hydrogen peroxide; cited from earlier work; remark: listed apart in the source
[3] = properties of commercial hydrogen peroxide; cited from earlier work; remark: listed apart in the source
[4] = properties of commercial hydrogen peroxide; cited from earlier work; remark: listed apart in the source
Enterovirus = details: cited from earlier work
Bacterial spores = details: cited from earlier work
[5] = cited from earlier work
Poliovirus = details: cited from earlier work
[6] = cited from earlier work; remark: listed apart in the source
[7] = tested on: Gram + and Gram − bacteria, fungi and yeasts; details: cited from earlier work
[8] = tested on: spores of bacillus subtilis; details: alcohol at concentrations of about 20% (or higher); cited from earlier work
[9] = Specific gravity of the solutions at 20° C.; type: physicochemical
Procedure: (§1) The above listed components were weighed separately, taking particular care with the concentrated sulfuric acid, which must be handled under a hood and with protection gloves. The components were mixed in the above listed sequence, making sure that the component being dealt with was perfectly mixed before adding the next one. After addition of the components, the mixture was stirred for 15 minutes, left to rest for 10 minutes and a sample was retrieved for checking its chemical and physical properties.
(§2) The following chemical-physical properties were measured: […]

[10] = pH (10% w/w in deionized water) at 20° C.; type: physicochemical
Procedure: as §1, §2

Miscibility in water = type: physicochemical
Procedure: as §1, §2

OO [Hydrogen peroxide, 35% w/w, Hydrogen peroxide]
Vapor pressure at 20° C. [1]: 17-20 mbar
pH (10% w/w in deionized water) at 20° C. [2]: 2.00-3.00 U of pH
Miscibility in water [3]: full
Specific gravity at 20° C. [4]: 1.132 g/mL

CC(=O)OO [PAA, peracetic acid]
Contact times (Enterovirus; 2000 ppm PAA): 10 to 30 min
Ppm (%) of PAA (Enterovirus): 2000 (0.2%) Ppm
Effect on medical and surgical instruments (Bacterial spores): Sterilization
Ppm (%) of PAA (Bacterial spores): 500-30,000 Ppm
Contact times (Bacterial spores; lower end of the 500-30,000 ppm range): 15 min
Contact times (Bacterial spores; upper end of the 500-30,000 ppm range): 0.25 min
loss of active ingredient per month ([5]; 40% w/w solution, per month): 1 to 2%
Contact times (Poliovirus): 15 min
Ppm (%) of PAA (Poliovirus): 1500-2250 Ppm
solubility in water [6]: infinite
Contact times ([7]; 100 ppm PAA): ≤ 5 min
Effect on medical and surgical instruments ([7]; 100 ppm PAA): Low-level disinfection
Contact times ([7]; in the presence of organic material, 200-500 ppm PAA): ≤ 5 min
Effect on medical and surgical instruments ([7]; in the presence of organic material): Low-level disinfection
Ppm (%) of PAA ([7]; inactivated and killed in the presence of organic material): 200-500 Ppm
Ppm (%) of PAA ([7]; microorganisms are inactivated and killed): 100 (0.01%) Ppm

CC(C)O [Isopropyl alcohol]
effect with PAA as regards its germicidal activity [8]: synergistic effect

CCO [Ethyl alcohol]
effect with PAA as regards its germicidal activity [8]: synergistic effect

OO [hydrogen peroxide]
loss of active ingredient per year ([5]; hydrogen peroxide (30 to 90%), per year): less than 1%

OO [Hydrogen peroxide, 50% w/w, Hydrogen peroxide]
Specific gravity at 20° C. [9]: 1.280 g/mL
pH (10% w/w in deionized water) at 20° C. [10]: 2.00-3.00 U of pH
Miscibility in water (Miscibility in water): full
